From US11518746B2, “Nitrogen ring linked deoxyuridine triphosphatase inhibitors” (CV6 Therapeutics (NI) Limited, priority 2016, dated 2022)

What was measured:
[1] = system: colorectal (HCT116 and SW620) cell line models; experiment: MTS growth inhibition assay; assay type: cell-based; settings: increasing concentrations of 5-FU between 0 and 100 μmol/L
Method: The Cell Titer AQueous MTS assay (Promega) is carried out according to the manufacturers guidelines. […] The combination effect is determined by the combination index (CI) method utilizing Calcusyn software (Biosoft, Ferguson, Mo.). Fraction affected (FA) is calculated from the percent growth inhibition: FA=[…]. CI values <1, synergism; 1-1.2, additive and >1.2, antagonism.
Test compounds are evaluated for their antitumor activity in colorectal cancer cells using the MTS growth inhibition assay. HCT116 and SW620 cells are exposed to increasing concentrations of each agent for 72 hours and growth inhibition is directly compared to vehicle-treated controls. The NSCLC cell lines A549 and H1299 are exposed to increasing concentrations of each agent for 72 hours and growth inhibition is directly compared to vehicle-treated controls.
MTS growth inhibition assays are performed to evaluate the effectiveness of the test compounds alone and in combination with the fluoropyrimidine thymidylate synthase (TS) inhibitor 5-fluorouracil (5-FU) at inhibiting the growth of colorectal (HCT116 and SW620) cell line models. […] Simultaneous treatment with increasing concentrations of 5-FU and a test compound at fixed concentrations of 25 μmol/L is determined.

[2] = target: T1, Recombinant human deoxyuridine nucleotidohydrolase (dUTPase) (Homo sapiens, UniProt P33316); experiment: dUTPase inhibition, fluorescence-based DNA polymerase assay; assay type: biochemical; settings: for % relative inhibition vs. positive control: mean over three concentrations, typically 100, 50 and 25 μmol/L, compared to in-run positive control
T1 construct: made in house
T1 sequence (P33316 1-164 isoform P33316-2): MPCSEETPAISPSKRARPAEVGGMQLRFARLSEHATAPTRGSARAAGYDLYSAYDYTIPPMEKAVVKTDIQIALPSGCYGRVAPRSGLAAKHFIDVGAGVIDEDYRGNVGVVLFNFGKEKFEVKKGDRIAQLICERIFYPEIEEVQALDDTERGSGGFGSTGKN
Text: Recombinant human deoxyuridine nucleotidohydrolase (dUTPase) is expressed and purified as described in Ladner R D, Carr S A, Huddleston M J, McNulty D E, Caradonna S J. J Biol Chem. 1996 Mar. 29; 271(13):7752-7. All drugs stocks are aliquoted and diluted as appropriate prior to use. The oligonucleotide primer, templates and fluorophore- and quencher-labeled detection probes are synthesized by Integrated DNA Technologies (Coralville, Iowa), subjected to polyacrylamide gel electrophoresis purification and reconstituted in Omnipur sterile nuclease-free water (EMD Chemicals USA, Gibbstown N.J.) at a stock concentration of 100 μmol/L. The two non-emissive (dark) quenching molecules incorporated into the detection probes include the Iowa black fluorescein quencher (IBFQ; absorption max 531 nm) and ZEN (non-abbreviation; absorption max 532 nm). The fluorescent label utilized is 6-FAM (5′-carboxyfluorescein; excitation max.=494 nm, emission max.=520 nm). Probes are further diluted to a working stock of 10 μmol/L and aliquoted to avoid repeated freeze/thaw cycles. AmpliTaq Gold DNA Polymerase, GeneAmp 10×PCR Buffer 2, MgCl2 and MicroAmp Optical 96-well Reaction Plates are purchased from Applied Biosystems (Carlsbad, Calif.). dNTPs are purchased individually at stock concentrations of 100 mmol/L from New England Biolabs at HPLC-certified >99% purity (Ipswich, Mass.).
Reaction mixtures contained primer, probe and template at an equimolar final concentration of 0.4 μmol/L. Magnesium chloride (MgCl2) is included at a final concentration of 2 mmol/L. Non-limiting dNTPs are included in the reaction mix in excess at a final concentration of 100 μmol/L (dUTP/dTTP is excluded). AmpliTaq Gold DNA polymerase is added at 0.875 U/reaction, 2.5 μl of 10×PCR buffer 2 added and nuclease-free ddH2O added to a final reaction volume of 25 μl. […] Thermal profiling and fluorescence detection is performed using a customized thermal program on board a Roche Lightcycler LC480 Instrument II. […] Raw fluorescence spectra for 6-FAM is measured at specified time intervals to follow assay progression on board a Roche LightCycler 480 Software Version 1.5 and exported and analyzed in Microsoft Excel (Microsoft, Redmond Wash.) and Prism (GraphPad Software, La Jolla Calif.). Fluorescence values for blank reactions (limiting dNTP omitted) are subtracted to give normalized fluorescence units (NFU) to account for background fluorescence.
Test compounds are screened in a fluorescence-based assay. […] This displacement effectively disrupts the Förster resonance energy transfer (FRET) and the resulting fluorescence detected upon excitation is directly proportional to the amount of the dUTP available in the assay for incorporation. […]

[3] = system: colorectal (HCT116), breast (MCF-7) and non-small cell lung (H1299, A549, H358 and H460) cell line models; experiment: Colony forming assay; assay type: cell-based; settings: increasing concentrations of FUdR between 0.5 and 2.5 μmol/L
Method: Colony forming assay showing the ability of colon (SW620, HCT116), non-small cell lung (A549, H460, H1299 and H358) and breast (MCF7) cancer cells to survive and proliferate following transient 24 hour exposure to test compounds, FUdR and combinations are determined. Specifically, cells are seeded at densities between 50 and 100 cells/well in 24-well plates. Twenty-four hours later, cells are treated with increasing concentrations of a rtest compound, a fixed dose of FUdR and combinations of these. After 24 hours, drug is removed, cells are rinsed and allowed to outgrow for 10-14 days. At the conclusion of the outgrowth, cells are fixed in 60% ice cold methanol and stained with 0.1% crystal violet, scanned and counted. Data is presented as percentage of untreated controls (mean±SD). Fraction affected and combination indexes are calculated according to the method of Chou and Talalay where <1 is indicative of a synergistic drug interaction.
Colony forming assays are performed to evaluate the effectiveness of test compounds alone and in combination with the fluoropyrimidine thymidylate synthase (TS) inhibitor fluorodeoxyuridine (FUdR) at reducing cancer cell viability in colorectal (HCT116), breast (MCF-7) and non-small cell lung (H1299, A549, H358 and H460) cell line models. […]

Compound	% relative inhibition vs. positive control [2] [%]	also measured
O=c1[nH]cc(F)c(=O)[nH]1 [Example 5-FU, 5-fluorouracil]		growth inhibition [1]: dose-dependent increases in growth inhibition
O=c1[nH]c(=O)n([C@H]2C[C@H](O)[C@@H](CO)O2)cc1F [FUdR, fluorodeoxyuridine]		colonies formed [3]: dose-dependent decreases in colonies formed

Further lines, with some results ahead:

% relative inhibition vs. positive control [2] [%]	Compound	also measured
75	O=C1CN(CCCC(=O)N2CCC[C@H]2C(O)(c2ccccc2)c2ccccc2)C(=O)N1 [Example 79, (5)-1-(4-(2-(hydroxydiphenylmethyl)pyrrolidin-1-yl)-4-oxobutyl)imidazolidine-2,4-dione]	IC50 [2]: 1 µM
22	COc1ccc(NCCCS(=O)(=O)N2CCCC2C(C)c2ccc(F)c(OCC3CC3)c2)c(=O)[nH]1 (stereo not drawn) [Example 80, 3-((3-((2-(1-(3-(cyclopropylmethoxy)-4-fluorophenyl)ethyl)pyrrolidin-1-yl)sulfonyl)propyl)amino)-6-methoxypyridin-2(1H)-one]	
13	CC(c1ccc(F)c(OCC2CC2)c1)C1CCCN1S(=O)(=O)CCCNC1CCC(=O)NC1=O (stereo not drawn) [Example 82, 3-((3-((2-(1-(3-(cyclopropylmethoxy)-4-fluorophenyl)ethyl)pyrrolidin-1-yl)sulfonyl)propyl)amino)piperidine-2,6-dione]	
